Data published in US8648117B2, “Methods and compositions for treating cancer metastasis” (Golden Biotechnology Corporation, priority 2012, dated 2014).

Columns and labels:
[1] = test system: PC-3 human prostate cancer cells; assay: Prostate cancer bone metastasis model (intratibial inoculation, 5-week study, preventive setting); type: in vivo, male athymic nude mice; parameters: Fractures / Osteoblastic lesions: unit not given here; settings: for Significance (Fractures) / Significance (Osteoblastic lesions): vs control; for Fractures / Osteoblastic lesions: x-ray, qualitative (yes or no)
Excerpt: (§1) The objective of this study was to test the efficacy of three different doses of the test compound 1 on prostate cancer bone metastases in male athymic nude mice in a 5-week study in preventive setting. The following 5 experimental groups were included in the study:
The vehicle was corn oil. All groups included 15 mice that were 7 weeks of age at the beginning of the study. Based on the body weights the animals were randomized to five groups. On day 0, the animals were given an intratibial inoculation of human prostate cancer cells. Body weights were determined twice a week. The development of osteoblastic and osteolytic lesions were followed by x-ray. The test compound and vehicle were administered by oral gavage twice a day. The animals were sacrificed at day 35. Tissue samples were collected for histology and embedded in paraffin from left and right tibia and femur for possible future histomorphometric analyses. Gross necropsy was performed to all animals at the end of the study, and all macroscopic signs were recorded.
(§2) Test compound 1 (99.85%, specific density: 1.005) was obtained in liquid form. Three 50× stock solutions were prepared in corn oil (75 mg/ml, 150 mg/ml and 225 mg/ml) and stored them in dark at +4° C. The dosing solutions of 1.5, 3.0 and 4.5 mg/ml were prepared from the stock solutions by diluting the stock solutions in corn oil 1:50. The dosing solutions were prepared once a week and stored in dark at +4° C. The dosing volume was 10 ml/kg. The test compound was administered by oral gavage twice a day with dosing intervals of 10+14 hours. The dosings were started at day 1 and performed at the same time every day.
(§3) Zoledronic acid was used as a reference compound. 1001 of Zometa® (Novartis Pharma GmbH, Nürnberg, Germany) 4 mg/5 ml infusion concentrate was diluted in 3.9 ml of sterile saline (0.9% NaCl) to obtain the administration concentration of 0.02 mg/ml. This solution was prepared once during the study and stored at +4° C. The dosing volume was 5 ml/kg, resulting in the dose of 0.1 mg/kg. The reference compound was administered SC twice in the study: at days 1 and 14.
Male athymic nude mice (Hsd: Athymic nude-nu, obtained from Harlan, The Netherlands) and PC-3 human prostate cancer cells (ATCC) were used for this study.
In this model, human prostate cancer cells are inoculated into the left proximal tibia of 5-7 week old male athymic nude mice. This mouse strain is immunodeficient, allowing rapid spreading of the human cancer cells. The bone lesions are mixed, being mainly osteolytic but also containing an osteoblastic component. Within four weeks after the inoculation part of the animals have already developed some bone lesions, that can be visualized by X-ray radiography. At 7 weeks, the bone metastases are clearly visible. The animals are sacrificed at 7-8 weeks after inoculation, and their bones are collected for further histomorphometric analysis.
Male athymic nude mice (Hsd: Athymic nude-nu, obtained from Harlan, The Netherlands) were used for this study. The age of the animals was 7 weeks, and their body weights were approximately 18-25 g at the beginning of the study. The mice were specific pathogen free (SPF) and isolator-reared animals. Correct age and good clinical health were qualifications for the study. The minimum quarantine and acclimatization period for the mice was 7 days. Allocation to groups was performed by randomization procedure based on body weight. The animals were marked with tail and ear marks. The mice were housed in Scantainer®, 5 mice per cage. In case of fighting, some of the animals had to be isolated. For intratibial inoculations the mice were anesthetized with i.p. injections of Xylazin (5-6 mg/kg) and Ketamine (92-109 mg/kg). For x-ray imaging the mice were anesthetized with inhalation of isoflurane. […]

[2] = test system: MDA-MB-231SA-GFP6 human breast cancer cells; assay: Breast cancer bone metastasis model (intracardiac inoculation, 25-day study, preventive setting); type: in vivo
Excerpt: as §1, with “the exemplary” for “the test”, “1 (Antroquinonol) from Example 1” for “1”, “on breast” for “on prostate”, “in female” for “in male”, “a 25-day” for “a 5-week”
The vehicle was corn oil. All groups included 15 mice that are 5 weeks of age at the beginning of the study. Based on the body weights the animals were randomized to five groups. On day 0, the animals were given intracardiac inoculation of human breast cancer cells. Body weights were determined twice a week. At sacrifice, the osteolytic lesions and whole body tumor burden were quantified by x-ray and fluorescence imaging, respectively. The test compound and vehicle were administered by oral gavage twice a day. Blood samples for analysing TRACP 5b were collected at days 0, 17 and 24. The animals were sacrificed at day 25, or earlier if they became moribund. Tissue samples were collected for histology and embedded in paraffin from left and right tibia and femur for possible future histomorphometric analyses. Gross necropsy was performed to all animals at the end of the study, and all macroscopic signs were recorded.
as §2, with “(99%, 1005 mg/ml)” for “(99.85%, specific density: 1.005)”, “were” for “were started at day 1 and”
as §3, with “100 μl” for “1001”
Female athymic nude mice (Hsd: Athymic nude-nu) were obtained from Harlan Laboratories B.V. (Horst, The Netherlands). MDA-MB-231SA-GFP6 human breast cancer cells were received originally from Prof. Theresa Guise (Indiana University, Indianapolis, Ind., USA) and transfected with pTurboGFP-N vector (Evrogen JSC, Moscow, Russia).
This experiment utilized an animal model that closely resembles the characteristics of breast cancer metastatic disease or condition in humans. This model can be effectively used for testing the effects of cancer drug candidates on the metastasis of breast cancer cells to bone. In this model, human breast cancer cells are inoculated into the left cardiac ventricle of 5 weeks old female athymic nude mice. This mouse strain is immunodeficient, allowing rapid spreading of the human cancer cells. Within two weeks after the inoculation, the animals develop osteolytic bone metastases that can be visualized by X-ray radiography. In addition, soft tissue metastases are observed in approximately 40% of the animals, especially in adrenal glands. At 3 weeks, the bone metastases are clearly visible in X-ray radiographs and the animals have developed cachexia and lost weight substantially. The animals are sacrificed typically at 3-4 weeks after inoculation, and their hindlegs are collected for further histomorphometric analysis.
Female Athymic nude mice (Hsd: Athymic nude-nu, obtained from Harlan, The Netherlands) were used for this study. The age of the animals was 5 weeks, and their body weights were approximately 16-22 g at the beginning of the study. The mice were specific pathogen free (SPF) and isolator-reared animals. […]

[3] = Day 28, 0.1 mg/kg sc days 1 and 14
[4] = Sacrifice, 0.1 mg/kg sc days 1 and 14

COC1=C(OC)C(O)C(C/C=C(\C)CC/C=C(\C)CCC=C(C)C)C(C)C1=O (stereo not drawn) [Compound 1, 4-hydroxy-2,3-dimethoxy-6-methyl-5-(3,7,11-trimethyldodeca-2,6,10-trienyl)cyclohex-2-enone]
Significance (Fractures) ([1]; Day 28, 30 mg/kg/d po): * (One asterisk (*) indicates a statistical significance with p-value<0.05) | Significance (Fractures) ([1]; Day 28, 60 mg/kg/d po): * (One asterisk (*) indicates a statistical significance with p-value<0.05) | Fractures ([1]; Day 28, 30 mg/kg/d po): 0.0 | Osteoblastic lesions ([1]; Day 28, 30 mg/kg/d po): 0.0 | Fractures ([1]; Day 28, 60 mg/kg/d po): 0.0 | Osteoblastic lesions ([1]; Day 28, 60 mg/kg/d po): 0.0 | Fractures ([1]; Day 28, 90 mg/kg/d po): 36.4 | Osteoblastic lesions ([1]; Day 28, 90 mg/kg/d po): 9.1 | Significance (Fractures) ([1]; Sacrifice, 30 mg/kg/d po): * (One asterisk (*) indicates a statistical significance with p-value<0.05) | Significance (Fractures) ([1]; Sacrifice, 60 mg/kg/d po): * (One asterisk (*) indicates a statistical significance with p-value<0.05) | Significance (Osteoblastic lesions) ([1]; Sacrifice, 60 mg/kg/d po): * (One asterisk (*) indicates a statistical significance with p-value<0.05) | Fractures ([1]; Sacrifice, 30 mg/kg/d po): 21.4 | Osteoblastic lesions ([1]; Sacrifice, 30 mg/kg/d po): 35.7 | Fractures ([1]; Sacrifice, 60 mg/kg/d po): 21.4 | Osteoblastic lesions ([1]; Sacrifice, 60 mg/kg/d po): 21.4 | Fractures ([1]; Sacrifice, 90 mg/kg/d po): 36.4 | Osteoblastic lesions ([1]; Sacrifice, 90 mg/kg/d po): 45.5 | osteoclast number at tumor-bone interface ([1]; all doses): no effect | total tumor area ([1]; dose 60 mg/kg/d): no effect | maximum body weight obtained ([1]; mouse, in vivo, 60 mg/kg/day): increased | Cachectic % ([2]; 30 mg/kg/d po): 21.4% | Paraplegic % ([2]; 30 mg/kg/d po): 57.1% | Cachectic % ([2]; 60 mg/kg/d po): 16.7% | Paraplegic % ([2]; 60 mg/kg/d po): 8.3% | Cachectic % ([2]; 90 mg/kg/d po): 20% | Paraplegic % ([2]; 90 mg/kg/d po): 20.0% | intraosseous tumor area ([2]; higher doses (60 and 90 mg/kg/d)): no effect | body weight at sacrifice ([2]; mouse, in vivo, 90 mg/kg/day): increased | maximum weight obtained during the study ([2]; mouse, in vivo, 90 mg/kg/day): increased

O=P(O)(O)C(O)(Cn1ccnc1)P(=O)(O)O [Zoledronic acid, reference compound]
body weight ([1]; 0.1 mg/kg sc days 1 and 14): no effect | Significance (Fractures) [1, 3]: * (One asterisk (*) indicates a statistical significance with p-value<0.05) | Fractures [1, 3]: 0.0 | Osteoblastic lesions [1, 3]: 0.0 | Significance (Fractures) [1, 4]: *** (three asterisks (***) a statistical significance with p-value<0.001) | Significance (Osteoblastic lesions) [1, 4]: *** (three asterisks (***) a statistical significance with p-value<0.001) | Fractures [1, 4]: 0.0 | Osteoblastic lesions [1, 4]: 0.0 | Cachectic % ([2]; 0.1 mg/kg sc days 1 and 14): 11.1% | Paraplegic % ([2]; 0.1 mg/kg sc days 1 and 14): 22.2% | body weight ([2]; 0.1 mg/kg sc days 1 and 14): no effect | intraosseous tumor area ([2]; 0.1 mg/kg sc days 1 and 14): no effect | whole body tumor burden ([2]; 0.1 mg/kg sc days 1 and 14): no effect
